From BindingDB's records for doi:10.7270/Q2WD3Z10 (Burnham Center For Chemical Genomics, 2010)
pIC50: −log10 of the molar value.

Biological target: NACHT, LRR and PYD domains-containing protein 3 (Homo sapiens, UniProt Q96P20)
Experiment: NALP3 inhibitors in yeast, dose response, luminescent (AID 488799)

Sequence of NACHT, LRR and PYD domains-containing protein 3 (Q96P20 whole entry, the tested form may be a part): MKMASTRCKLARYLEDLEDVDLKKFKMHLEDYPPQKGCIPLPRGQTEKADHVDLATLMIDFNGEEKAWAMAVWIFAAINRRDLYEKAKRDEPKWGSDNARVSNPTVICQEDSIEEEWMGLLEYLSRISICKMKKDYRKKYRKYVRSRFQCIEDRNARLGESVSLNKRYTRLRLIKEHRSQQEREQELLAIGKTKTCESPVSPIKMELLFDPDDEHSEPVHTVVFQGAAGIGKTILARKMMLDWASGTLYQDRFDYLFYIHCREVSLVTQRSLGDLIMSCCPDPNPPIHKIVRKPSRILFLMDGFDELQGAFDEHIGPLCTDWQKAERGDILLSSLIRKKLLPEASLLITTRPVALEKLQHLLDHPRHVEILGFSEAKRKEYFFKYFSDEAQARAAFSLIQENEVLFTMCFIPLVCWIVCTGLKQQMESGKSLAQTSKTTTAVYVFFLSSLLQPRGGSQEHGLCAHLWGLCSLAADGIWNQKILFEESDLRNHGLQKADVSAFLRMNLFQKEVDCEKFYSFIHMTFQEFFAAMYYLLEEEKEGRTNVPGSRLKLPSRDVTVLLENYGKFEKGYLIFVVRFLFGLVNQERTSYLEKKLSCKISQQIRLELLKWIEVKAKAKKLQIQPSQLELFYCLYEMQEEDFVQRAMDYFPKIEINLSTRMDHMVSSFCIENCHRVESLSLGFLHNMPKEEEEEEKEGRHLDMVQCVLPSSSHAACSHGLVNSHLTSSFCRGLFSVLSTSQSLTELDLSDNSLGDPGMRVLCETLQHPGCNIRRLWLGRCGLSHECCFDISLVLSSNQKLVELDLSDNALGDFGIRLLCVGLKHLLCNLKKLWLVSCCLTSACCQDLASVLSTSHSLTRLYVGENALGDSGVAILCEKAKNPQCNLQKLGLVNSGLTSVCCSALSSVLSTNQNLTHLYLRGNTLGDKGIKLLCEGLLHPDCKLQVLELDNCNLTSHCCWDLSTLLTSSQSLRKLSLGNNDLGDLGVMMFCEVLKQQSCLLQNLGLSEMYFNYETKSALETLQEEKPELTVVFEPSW

Row | SMILES | pIC50
1 | CCCCCC(=O)N1CCN(CCNC=C2C(=O)CC(c3ccco3)CC2=O)CC1 (stereo unspecified) [SMR000019406] | 5.14
2 | O=C1C=CC(/N=N/c2ccc([N+](=O)[O-])cc2Cl)=CC1C(=O)Nc1cccc(Cl)c1 (stereo unspecified) [(3Z)-3-[(2-chloro-4-nitrophenyl)hydrazinylidene]-N-(3-chlorophenyl)-6-oxocyclohexa-1,4-diene-1-carboxamide] | 5.87
3 | C=CCc1c(C)nc(C)nc1N=NCc1ccccc1O [2-[(5-Allyl-2,6-dimethyl-pyrimidin-4-yl)-hydrazonomethyl]-phenol] | 4.34
4 | O=C(NCCC1=CCCCC1)c1c(O)n2ccsc2nc1=O [SMR000811826] | 5.42
5 | O=C(NCCCc1ccccc1)c1c(O)n2ccsc2nc1=O [5-oxidanyl-7-oxidanylidene-N-(3-phenylpropyl)-[1,3]thiazolo[3,2-a]pyrimidine-6-carboxamide] | 5.02
6 | Cc1csc2nc(=O)c(C(=O)NCCC3=CCCCC3)c(O)n12 | 5.39
